For assay [1], the target named is T1, Apoptotic protease-activating factor 1 (Homo sapiens, UniProt O14727).
T1 sequence (O14727 whole entry): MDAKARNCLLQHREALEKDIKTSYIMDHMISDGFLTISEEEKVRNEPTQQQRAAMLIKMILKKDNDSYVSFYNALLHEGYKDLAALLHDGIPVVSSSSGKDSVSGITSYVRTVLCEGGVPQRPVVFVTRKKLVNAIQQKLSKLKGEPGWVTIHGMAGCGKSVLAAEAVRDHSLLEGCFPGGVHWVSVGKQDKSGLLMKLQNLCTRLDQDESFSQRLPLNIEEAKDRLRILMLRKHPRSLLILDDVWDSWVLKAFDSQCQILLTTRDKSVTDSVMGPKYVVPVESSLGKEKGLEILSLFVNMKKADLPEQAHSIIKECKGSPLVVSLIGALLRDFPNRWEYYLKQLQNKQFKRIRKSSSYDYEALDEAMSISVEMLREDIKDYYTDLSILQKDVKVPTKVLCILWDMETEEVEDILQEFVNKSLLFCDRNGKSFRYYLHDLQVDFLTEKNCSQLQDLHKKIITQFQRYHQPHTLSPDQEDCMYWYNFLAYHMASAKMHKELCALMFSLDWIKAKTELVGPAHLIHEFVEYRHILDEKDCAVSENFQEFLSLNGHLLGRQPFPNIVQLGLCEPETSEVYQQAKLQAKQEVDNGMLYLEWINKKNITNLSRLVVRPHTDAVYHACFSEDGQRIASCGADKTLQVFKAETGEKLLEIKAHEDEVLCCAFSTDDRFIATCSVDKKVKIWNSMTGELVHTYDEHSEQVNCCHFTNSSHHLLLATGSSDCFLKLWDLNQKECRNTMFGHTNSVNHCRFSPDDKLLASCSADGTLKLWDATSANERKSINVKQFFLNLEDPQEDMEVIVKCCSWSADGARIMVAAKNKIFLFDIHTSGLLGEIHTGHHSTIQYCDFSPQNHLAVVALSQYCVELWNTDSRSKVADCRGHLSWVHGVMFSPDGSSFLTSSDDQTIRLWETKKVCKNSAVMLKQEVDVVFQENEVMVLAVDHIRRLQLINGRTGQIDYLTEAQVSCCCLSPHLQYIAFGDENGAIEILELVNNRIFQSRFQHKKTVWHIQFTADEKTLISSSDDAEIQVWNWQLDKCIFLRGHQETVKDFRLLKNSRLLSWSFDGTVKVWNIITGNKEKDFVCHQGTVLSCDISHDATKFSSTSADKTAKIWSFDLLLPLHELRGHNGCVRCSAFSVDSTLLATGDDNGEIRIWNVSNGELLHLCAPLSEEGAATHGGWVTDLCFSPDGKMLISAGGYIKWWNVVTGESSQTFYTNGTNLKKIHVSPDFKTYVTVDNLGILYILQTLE
The class given is functional.

Assay [2] addresses Induced myeloid leukemia cell differentiation protein Mcl-1 (Homo sapiens, UniProt Q07820). In kind it is functional.
Assay [3] deals with T2, Sentrin-specific protease 6 (Homo sapiens, UniProt Q9GZR1).
T2 sequence (Q9GZR1 whole entry): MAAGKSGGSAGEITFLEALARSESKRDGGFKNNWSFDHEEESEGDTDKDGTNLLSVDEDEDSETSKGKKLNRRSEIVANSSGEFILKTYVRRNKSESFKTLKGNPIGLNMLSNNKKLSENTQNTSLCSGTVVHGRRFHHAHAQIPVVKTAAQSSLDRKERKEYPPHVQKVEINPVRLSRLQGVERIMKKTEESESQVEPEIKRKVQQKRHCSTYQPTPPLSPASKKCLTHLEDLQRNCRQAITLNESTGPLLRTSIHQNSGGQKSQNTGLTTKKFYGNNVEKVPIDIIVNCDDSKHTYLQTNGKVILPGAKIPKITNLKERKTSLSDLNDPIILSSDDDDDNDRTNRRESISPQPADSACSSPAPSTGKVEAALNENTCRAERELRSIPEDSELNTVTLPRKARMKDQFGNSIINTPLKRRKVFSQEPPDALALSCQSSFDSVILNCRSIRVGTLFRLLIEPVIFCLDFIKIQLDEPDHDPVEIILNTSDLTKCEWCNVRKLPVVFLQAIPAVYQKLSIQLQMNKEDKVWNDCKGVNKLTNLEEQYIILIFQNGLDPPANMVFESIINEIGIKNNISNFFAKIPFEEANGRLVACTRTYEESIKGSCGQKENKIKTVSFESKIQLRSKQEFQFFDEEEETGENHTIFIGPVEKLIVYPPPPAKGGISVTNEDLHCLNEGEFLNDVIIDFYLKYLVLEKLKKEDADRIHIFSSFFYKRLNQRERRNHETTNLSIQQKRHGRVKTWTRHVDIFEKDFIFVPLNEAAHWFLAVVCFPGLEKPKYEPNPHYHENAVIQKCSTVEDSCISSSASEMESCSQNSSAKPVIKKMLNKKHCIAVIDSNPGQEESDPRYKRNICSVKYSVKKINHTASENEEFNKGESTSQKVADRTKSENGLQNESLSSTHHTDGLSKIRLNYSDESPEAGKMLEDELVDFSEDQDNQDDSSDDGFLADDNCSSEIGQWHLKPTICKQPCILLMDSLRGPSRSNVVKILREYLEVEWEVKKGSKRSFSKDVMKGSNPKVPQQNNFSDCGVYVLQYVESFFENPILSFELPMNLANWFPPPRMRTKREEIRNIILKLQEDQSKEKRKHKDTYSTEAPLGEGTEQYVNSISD
The class given is functional.

For assay [4], the target named is T3, Sentrin-specific protease 8 (Homo sapiens, UniProt Q96LD8).
T3 sequence (Q96LD8 whole entry): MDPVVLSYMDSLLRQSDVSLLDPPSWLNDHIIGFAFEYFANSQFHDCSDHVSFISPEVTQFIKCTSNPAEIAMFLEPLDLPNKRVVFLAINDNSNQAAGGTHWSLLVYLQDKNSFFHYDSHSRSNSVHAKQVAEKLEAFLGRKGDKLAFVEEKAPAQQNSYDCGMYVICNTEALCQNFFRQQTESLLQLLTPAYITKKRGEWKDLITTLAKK
The class given is functional.

Assay [5] has as its target T4, Tyrosyl-DNA phosphodiesterase 2 (Homo sapiens, UniProt O95551).
T4 sequence (O95551 whole entry): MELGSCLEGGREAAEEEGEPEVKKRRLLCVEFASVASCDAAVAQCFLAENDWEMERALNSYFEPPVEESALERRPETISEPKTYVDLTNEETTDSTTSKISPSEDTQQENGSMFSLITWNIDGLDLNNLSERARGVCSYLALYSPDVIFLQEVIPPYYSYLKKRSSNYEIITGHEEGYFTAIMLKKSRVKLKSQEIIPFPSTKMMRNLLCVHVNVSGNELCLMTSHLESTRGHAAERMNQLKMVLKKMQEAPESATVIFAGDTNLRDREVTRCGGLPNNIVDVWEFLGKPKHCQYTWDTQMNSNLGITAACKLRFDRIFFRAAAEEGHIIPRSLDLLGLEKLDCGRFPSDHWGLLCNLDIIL
Briefly: potency against TDP2 phosphodiesterase activity – biochemical, epi absorbance, IC50, dose response (AID 743297).

The target of assay [6] is T3, Sentrin-specific protease 8. The class given is functional. The source holds these as a separate data set.

The structures appear in SMILES notation. Active and inactive are the calls of the source.

Sequence of Induced myeloid leukemia cell differentiation protein Mcl-1 (Q07820 whole entry): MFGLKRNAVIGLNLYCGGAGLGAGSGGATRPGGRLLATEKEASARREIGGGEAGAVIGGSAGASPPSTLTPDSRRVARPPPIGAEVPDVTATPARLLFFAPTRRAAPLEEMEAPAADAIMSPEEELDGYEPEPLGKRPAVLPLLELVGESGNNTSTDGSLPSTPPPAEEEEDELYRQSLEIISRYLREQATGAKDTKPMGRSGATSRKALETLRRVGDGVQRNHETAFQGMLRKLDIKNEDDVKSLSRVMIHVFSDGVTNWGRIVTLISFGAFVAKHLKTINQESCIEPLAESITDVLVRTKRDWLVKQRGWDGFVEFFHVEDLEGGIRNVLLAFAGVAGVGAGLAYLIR

In general, IC50 refers to the point on the concentration scale where inhibition reaches its midpoint. Consider `O=C1C(Cl)=C(NCCN2CCCCC2)C(=O)c2ccccc21`, for which the half-maximal inhibitory concentration (IC50) in assay [1] was 5.4 µM (active).
In the case of `O=C(O)COc1ccc(/C=N/NC(=O)c2ccc(-c3csc(Nc4ccc(Cl)cc4)n3)cc2)cc1`, the IC50 in assay [2] was 0.886 µM (active).
Regarding `COc1ccc(C(=O)Nc2nc3c(s2)Cc2cc(OC)ccc2-3)cc1`, the IC50 was 3.75 µM (active) in assay [2]; 1.65 µM (active) in assay [3]; 2.29 µM (active) in assay [4]; 51.1 µM (active) in assay [1]; 11.2 µM (inactive) in assay [5].
Turning to `CC(/C=C1\SC(=S)N(NS(=O)(=O)c2ccccc2)C1=O)=C\c1ccccc1`, the IC50 is 20.6 µM (active) in assay [2], 2.64 µM (active) in assay [3] and 2.86 µM (active) in assay [4].
As for `CCN1/C(=C/c2ccc3cc(C)ccc3[n+]2CC)Sc2cc(C)c(C)cc21`, the half-maximal inhibitory concentration (IC50) in assay [1] was 23.9 µM (active).
For `COc1cc(NCCCNC(C)C)c2nccc(C)c2c1`, the IC50 was 1.09 µM (active) in assay [6] and > 128 µM (inactive) in assay [5].
As for `Cc1oc2c(c1C(=O)c1ccccc1)C(=O)C(=O)c1ccccc1-2`, the IC50 in assay [3] is 6.87 µM (active); in assay [4] it was 12.8 µM (active); in assay [5], 14.2 µM (inactive).
Turning to `O=C1CCCC2=C1C1(O)C(=O)c3ccccc3C1(O)O2` (centres undefined), the 50% inhibitory concentration (IC50) was 13.1 µM (active) in assay [1], 6.65 µM (active) in assay [6] and 8.01 µM (active) in assay [5].

The values above are taken from ChEMBL document CHEMBL1201862, “PubChem BioAssay data set” (2004).
